Assay results as given in the supplement of paper PMC10307832.

Columns and labels:
Test in all cases: relative viability (nuclei count vs DMSO), 5 days (fraction); higher = more cells survive
LXF-289 = system: LXF-289
Summary of the method: (§1)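 The day after seeding in 1536-well plates, lung cancer cell lines were treated by pin tool with a single drug, or with a fixed anchor-drug dose together with five library-drug doses (not always all listed) in √10 steps. After 5 days, a combined fix-and-stain solution (final 0.05% Triton X-100, 1% formaldehyde, 1 ug/ml Hoechst) was added. Nuclei counted on 4× images gave relative viability as treated counts over vehicle counts, reported as the median of duplicate plates.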

UMC-11 = system: UMC-11
Summary of the method: as §1

HCC-78 = system: HCC-78
Summary of the method: as §1

EPLC-272H = system: EPLC-272H
Summary of the method: as §1

EMC-BAC-2 = system: EMC-BAC-2
Summary of the method: as §1

NCI-H1975 = system: NCI-H1975
Summary of the method: as §1

NCI-H2085 = system: NCI-H2085
Summary of the method: as §1

ChaGo-K-1 = system: ChaGo-K-1
Summary of the method: as §1

NCI-H1915 = system: NCI-H1915
Summary of the method: as §1

NCI-H3122 = system: NCI-H3122
Summary of the method: as §1

NCI-H322M = system: NCI-H322M
Summary of the method: as §1

NCI-H2023 = system: NCI-H2023
Summary of the method: as §1

HCC-15 = system: HCC-15
Summary of the method: as §1

HOP-62 = system: HOP-62
Summary of the method: as §1

NCI-H1666 = system: NCI-H1666
Summary of the method: as §1

NCI-H358 = system: NCI-H358
Summary of the method: as §1

NCI-H441 = system: NCI-H441
Summary of the method: as §1

COR-L 105 = system: COR-L 105
Summary of the method: as §1

CAL-12T = system: CAL-12T
Summary of the method: as §1

NCI-H1755 = system: NCI-H1755
Summary of the method: as §1

NCI-H2126 = system: NCI-H2126
Summary of the method: as §1

ABC-1 = system: ABC-1
Summary of the method: as §1

CC(=O)O[C@@]12CO[C@@H]1C[C@H](O)[C@@]1(C)C(=O)[C@H](O)C3=C(C)[C@@H](OC(=O)[C@H](O)[C@@H](NC(=O)OC(C)(C)C)c4ccccc4)C[C@@](O)([C@@H](OC(=O)c4ccccc4)[C@H]21)C3(C)C [Docetaxel] + O=C(CCCCCCC(=O)Nc1ccccc1)NO [Vorinostat] (partner 1 µM)
relative viability (LXF-289; first compound 0.0002 µM): 0.797 | relative viability (LXF-289; first compound 0.000632 µM): 0.392 | relative viability (LXF-289; first compound 0.002 µM): 0.168 | relative viability (LXF-289; first compound 0.006325 µM): 0.19 | relative viability (LXF-289; first compound 0.02 µM): 0.118 | relative viability (UMC-11; first compound 0.0002 µM): 0.402 | relative viability (UMC-11; first compound 0.000632 µM): 0.287 | relative viability (UMC-11; first compound 0.002 µM): 0.155 | relative viability (UMC-11; first compound 0.006325 µM): 0.203 | relative viability (UMC-11; first compound 0.02 µM): 0.108 | relative viability (HCC-78; first compound 0.0002 µM): 0.473 | relative viability (HCC-78; first compound 0.000632 µM): 0.374 | relative viability (HCC-78; first compound 0.002 µM): 0.261 | relative viability (HCC-78; first compound 0.006325 µM): 0.31 | relative viability (HCC-78; first compound 0.02 µM): 0.313 | relative viability (EPLC-272H; first compound 0.0002 µM): 0.532 | relative viability (EPLC-272H; first compound 0.000632 µM): 0.162 | relative viability (EPLC-272H; first compound 0.002 µM): 0.0568 | relative viability (EPLC-272H; first compound 0.006325 µM): 0.0865 | relative viability (EPLC-272H; first compound 0.02 µM): 0.0652 | relative viability (EMC-BAC-2; first compound 0.0002 µM): 0.388 | relative viability (EMC-BAC-2; first compound 0.000632 µM): 0.293 | relative viability (EMC-BAC-2; first compound 0.002 µM): 0.262 | relative viability (EMC-BAC-2; first compound 0.006325 µM): 0.224 | relative viability (EMC-BAC-2; first compound 0.02 µM): 0.171 | relative viability (NCI-H1975; first compound 0.0002 µM): 0.723 | relative viability (NCI-H1975; first compound 0.000632 µM): 0.378 | relative viability (NCI-H1975; first compound 0.002 µM): 0.283 | relative viability (NCI-H1975; first compound 0.006325 µM): 0.232 | relative viability (NCI-H1975; first compound 0.02 µM): 0.161 | relative viability (NCI-H2085; first compound 0.0002 µM): 0.82 | relative viability (NCI-H2085; first compound 0.000632 µM): 0.734 | relative viability (NCI-H2085; first compound 0.002 µM): 0.736 | relative viability (NCI-H2085; first compound 0.006325 µM): 0.355 | relative viability (NCI-H2085; first compound 0.02 µM): 0.488 | relative viability (ChaGo-K-1; first compound 0.0002 µM): 0.733 | relative viability (ChaGo-K-1; first compound 0.000632 µM): 0.591 | relative viability (ChaGo-K-1; first compound 0.002 µM): 0.335 | relative viability (ChaGo-K-1; first compound 0.006325 µM): 0.282 | relative viability (ChaGo-K-1; first compound 0.02 µM): 0.193 | relative viability (NCI-H1915; first compound 0.0002 µM): 0.531 | relative viability (NCI-H1915; first compound 0.000632 µM): 0.258 | relative viability (NCI-H1915; first compound 0.002 µM): 0.316 | relative viability (NCI-H1915; first compound 0.006325 µM): 0.174 | relative viability (NCI-H1915; first compound 0.02 µM): 0.0863 | relative viability (NCI-H3122; first compound 0.0002 µM): 0.909 | relative viability (NCI-H3122; first compound 0.000632 µM): 0.95 | relative viability (NCI-H3122; first compound 0.002 µM): 0.487 | relative viability (NCI-H3122; first compound 0.006325 µM): 0.22 | relative viability (NCI-H3122; first compound 0.02 µM): 0.126 | relative viability (NCI-H322M; first compound 0.0002 µM): 0.801 | relative viability (NCI-H322M; first compound 0.000632 µM): 0.843 | relative viability (NCI-H322M; first compound 0.002 µM): 0.906 | relative viability (NCI-H322M; first compound 0.006325 µM): 0.711 | relative viability (NCI-H322M; first compound 0.02 µM): 0.481 | relative viability (NCI-H2023; first compound 0.0002 µM): 0.466 | relative viability (NCI-H2023; first compound 0.002 µM): 0.101 | relative viability (NCI-H2023; first compound 0.006325 µM): 0.0951 | relative viability (NCI-H2023; first compound 0.02 µM): 0.0577 | relative viability (HCC-15; first compound 0.0002 µM): 0.856 | relative viability (HCC-15; first compound 0.000632 µM): 0.574 | relative viability (HCC-15; first compound 0.006325 µM): 0.227 | relative viability (HCC-15; first compound 0.02 µM): 0.131 | relative viability (HOP-62; first compound 0.0002 µM): 0.522 | relative viability (HOP-62; first compound 0.000632 µM): 0.346 | relative viability (NCI-H1666; first compound 0.0002 µM): 0.893 | relative viability (NCI-H1666; first compound 0.000632 µM): 0.992 | relative viability (NCI-H1666; first compound 0.002 µM): 0.681 | relative viability (NCI-H1666; first compound 0.006325 µM): 0.706 | relative viability (NCI-H1666; first compound 0.02 µM): 0.47 | relative viability (NCI-H358; first compound 0.0002 µM): 0.625 | relative viability (NCI-H358; first compound 0.000632 µM): 0.399 | relative viability (NCI-H358; first compound 0.002 µM): 0.109 | relative viability (NCI-H358; first compound 0.006325 µM): 0.112 | relative viability (NCI-H358; first compound 0.02 µM): 0.0606 | relative viability (NCI-H441; first compound 0.0002 µM): 0.713 | relative viability (NCI-H441; first compound 0.000632 µM): 0.53 | relative viability (NCI-H441; first compound 0.002 µM): 0.223 | relative viability (NCI-H441; first compound 0.006325 µM): 0.219 | relative viability (NCI-H441; first compound 0.02 µM): 0.165 | relative viability (COR-L 105; first compound 0.0002 µM): 0.889 | relative viability (COR-L 105; first compound 0.000632 µM): 0.747 | relative viability (COR-L 105; first compound 0.002 µM): 0.392 | relative viability (COR-L 105; first compound 0.006325 µM): 0.413 | relative viability (COR-L 105; first compound 0.02 µM): 0.368 | relative viability (CAL-12T; first compound 0.0002 µM): 0.411 | relative viability (CAL-12T; first compound 0.000632 µM): 0.35 | relative viability (CAL-12T; first compound 0.002 µM): 0.255 | relative viability (CAL-12T; first compound 0.006325 µM): 0.142 | relative viability (CAL-12T; first compound 0.02 µM): 0.12 | relative viability (NCI-H1755; first compound 0.0002 µM): 0.791 | relative viability (NCI-H1755; first compound 0.000632 µM): 0.728 | relative viability (NCI-H1755; first compound 0.002 µM): 0.433 | relative viability (NCI-H1755; first compound 0.006325 µM): 0.479 | relative viability (NCI-H1755; first compound 0.02 µM): 0.373 | relative viability (NCI-H2126; first compound 0.0002 µM): 0.783 | relative viability (NCI-H2126; first compound 0.000632 µM): 0.577 | relative viability (NCI-H2126; first compound 0.002 µM): 0.312 | relative viability (NCI-H2126; first compound 0.006325 µM): 0.337 | relative viability (ABC-1; first compound 0.0002 µM): 1.13 | relative viability (ABC-1; first compound 0.000632 µM): 0.884 | relative viability (ABC-1; first compound 0.002 µM): 0.44 | relative viability (ABC-1; first compound 0.006325 µM): 0.435 | relative viability (ABC-1; first compound 0.02 µM): 0.338
